The values below come from US9340517B2, “Methods of modulating the activity of the MC5 receptor and treatment of conditions related to this receptor” (Mimetica PTY LTD, priority 2008, dated 2016).

Like-named read-outs stand apart in the source and are kept apart here. A value given as a limit tells only on which side of the number the result lay.

In one test the target is human MC5R (Homo sapiens (Human), UniProt P33032). Put plainly: Human MC5R radioligand binding assay ([125I] NDP-MSH displacement, membranes). As for the experimental part:
Assessments of compound binding to human MC5R (hMC5R)) by displacement of an ^125I-labeled NDP-MSH receptor ligand peptide were performed essentially as described in the data sheets produced by Perkin Elmer to accompany their frozen hMC5R membranes (Perkin Elmer catalog number RBXMC5M400UA).
Na^125I (0.5 mCi, 17.4 Ci/mg) was added to 50 μL sodium phosphate (50 mM, pH 7.4) in an eppendorf tube precoated with IODOGEN. After incubation for 10 mins the phosphate buffer containing the iodine was added to NDP-MSH (10 ul at 1 mg/mL) in a separate eppendorf tube. This was incubated for a further 10 mins. The iodinated NDP-MSH was purified by HPLC on a Zorbax SB 300 column using solvent A: 0.05% TFA and solvent B: 90% acetonitrile 0.045% TFA with a linear gradient, 0-67% B over 60 mins.
Perkin Elmer frozen hMC5 membranes: catalog number RBXMC5M400UA, 0.4 mL/vial; 400 microassays/vial, 0.78 mg/mL protein concentration
Vials of frozen membranes were thawed rapidly immediately before use, diluted with binding buffer and vortexed. Resuspended membranes were kept on ice until they were added to the wells of the plate.
Assays were performed in 96 well polypropylene plates. […] This was incubated for 1 hr at 37° C.

For test [1] the following is noted: oral, cited from earlier work.
Where [2] appears, read: hMC5R binding assay as in Example 102, compounds tested as trifluoroacetate or hydrochloride salts, or as free base.
Setting [3] is: hMC5R binding assay as in Example 102, compounds tested as trifluoroacetate or hydrochloride salts, or free base.

Chain of human MC5R (P33032 whole entry): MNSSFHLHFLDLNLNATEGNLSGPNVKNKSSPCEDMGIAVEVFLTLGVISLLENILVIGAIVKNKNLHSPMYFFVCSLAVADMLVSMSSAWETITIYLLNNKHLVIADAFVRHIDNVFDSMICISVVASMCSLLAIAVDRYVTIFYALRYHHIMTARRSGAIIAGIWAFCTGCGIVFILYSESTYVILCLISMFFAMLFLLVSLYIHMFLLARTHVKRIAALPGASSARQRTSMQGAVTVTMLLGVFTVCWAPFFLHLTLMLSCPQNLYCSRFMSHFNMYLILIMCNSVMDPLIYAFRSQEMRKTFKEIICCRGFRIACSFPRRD

On human MC5R, `O=C(NCC1CCN(CC(c2ccccc2)c2ccccc2)C(=O)C(C2CCNCC2)N1)c1ccc2ccccc2c1` (racemic) [Compound 197, N-((1-(2,2-diphenylethyl)-2-oxo-3-(piperidin-4-yl)-1,4-diazepan-5-yl)methyl)-2-naphthamide] registered a half-inhibitory concentration (IC50) of under 1000 nM. On to `O=C(NCC1CCN(CC(c2ccccc2)c2ccccc2)C(=O)C(CC2CCNCC2)N1)c1ccc2ccccc2c1` (racemic) [Compound 198, N-((1-(2,2-diphenylethyl)-2-oxo-3-(piperidin-4-ylmethyl)-1,4-diazepan-5-yl)methyl)-2-naphthamide], for which the IC50 at human MC5R was under 1000 nM. With `N=C(N)NCCC[C@@H]1N[C@H](CNC(=O)/C=C/c2ccccc2)CCN(CC(c2ccccc2)c2ccccc2)C1=O` [Compound 153, N-(((3S,5S)-1-(2,2-diphenylethyl)-3-(3-guanidinopropyl)-2-oxo-1,4-diazepan-5-yl)methyl)cinnamamide], the IC50 at human MC5R (setting [2]) was under 100 nM. In the case of `NCCC[C@@H]1N[C@H](CNC(=O)/C=C/c2ccccc2)CCN(CC(c2ccccc2)c2ccccc2)C1=O` [Compound 213, N-(((3S,5S)-3-(3-aminopropyl)-1-(2,2-diphenylethyl)-2-oxo-1,4-diazepan-5-yl)methyl)cinnamamide], the IC50 on human MC5R (setting [2]) was under 1000 nM. Take `O=C(/C=C/c1ccccc1)NC[C@@H]1CCN(CC(c2ccccc2)c2ccccc2)C(=O)[C@H](CCCN2CCCCC2)N1` [Compound 269, N-(((3S,5S)-1-(2,2-diphenylethyl)-2-oxo-3-(3-(piperidin-1-yl)propyl)-1,4-diazepan-5-yl)methyl)cinnamamide]: the IC50 on human MC5R (setting [2]) is under 100 nM. Regarding `NCC[C@@H]1N[C@H](CNC(=O)/C=C/c2ccccc2)CCN(CC(c2ccccc2)c2ccccc2)C1=O` [Compound 282, N-(((3S,5S)-3-(2-aminoethyl)-1-(2,2-diphenylethyl)-2-oxo-1,4-diazepan-5-yl)methyl)cinnamamide], the half-maximal inhibitory concentration (IC50) on human MC5R (setting [2]) is under 1000 nM.

For `Nc1ccccc1C[C@H]1C(=O)N(CC(c2ccccc2)c2ccccc2)CC[C@H]2CN(C(=O)/C=C/c3ccc(Cl)cc3)CN21` [Compound 453, (5S,9aS)-5-((2-aminobenzyl)-2-(E)-3-(4-chlorophenyl)acryloyl)-7-(2,2-diphenylethyl)hexahydro-1H-imidazo[1,5-d][1,4]diazepin-6(5H)-one], the IC50 on human MC5R (setting [2]) was under 1000 nM. Take `CC[C@H](CN1CC[C@@H](CNC(=O)Cc2ccc(Cl)cc2Cl)N[C@@H](CCN2CCCCC2)C1=O)c1ccccc1` [Compound 540, 2-(2,4-dichlorophenyl)-N-(((3S,5S)-2-oxo-1-((S)-2-phenylbutyl)-3-(2-(piperidin-1-yl)ethyl)-1,4-diazepan-5-yl)methyl)acetamide]: the IC50 at human MC5R is under 1000 nM. With `O=C(NC[C@@H]1CCN(Cc2cc(Cl)cc(Cl)c2)C(=O)[C@H](CCN2CCOCC2)N1)c1ccc2cc(Cl)ccc2c1` [Compound 555], the 50% inhibitory concentration (IC50) at human MC5R (setting [3]) is under 100 nM. Turning to `O=C(NC[C@@H]1CCN(Cc2cc(Cl)cc(Cl)c2)C(=O)[C@H](CCN2CCOCC2)N1)c1ccc(Cl)c(Cl)c1` [Compound 556], the half-inhibitory concentration (IC50) at human MC5R (setting [3]) is under 100 nM. On the same count and under the same terms, the value for `COc1ccc2cc(C(=O)NC[C@@H]3CCN(Cc4cc(Cl)cc(Cl)c4)C(=O)[C@H](CCN4CCCCC4)N3)ccc2c1` [Compound 568] was under 100 nM. Take `CC[C@H](CN1CC[C@@H](CNC(=O)c2ccc3cc(Cl)ccc3c2)N[C@H](CCN2CCCCC2)C1=O)c1ccccc1` [Compound 582, 6-chloro-N-(((3R,5S)-2-oxo-1-((S)-2-phenylbutyl)-3-(2-(piperidin-1-yl)ethyl)-1,4-diazepan-5-yl)methyl)-2-naphthamide]: the IC50 at human MC5R was under 100 nM. In the case of `CC[C@@H](CN1CC[C@@H](CNC(=O)c2ccc3cc(Cl)ccc3c2)N[C@H](CCN2CCCCC2)C1=O)c1ccccc1` [Compound 584, 6-chloro-N-(((3R,5S)-2-oxo-1-((R)-2-phenylbutyl)-3-(2-(piperidin-1-yl)ethyl)-1,4-diazepan-5-yl)methyl)-2-naphthamide], the IC50 on human MC5R is under 1000 nM. Turning to `CC1=C(/C=C/C(C)=C/C=C/C(C)=C\C(=O)O)C(C)(C)CCC1` [isotretinoin, 13-cis-retinoic acid], the “reduction of sebum excretion” value in test [1] (after 8-12 weeks of therapy) is recorded as “up to 90%”; in test [1] (by 2 weeks) it was 60-70%.

Broadly, the IC50 is the midpoint of a concentration-inhibition curve.
